Reference: patent US10961202B2, “Bis-benzimidazole compounds and methods of using the same” (THE SCRIPPS RESEARCH INSTITUTE, priority 2017, dated 2021)

Test system: r(CUG)12-MBNL1 complex
Assay: Inhibition of the r(CUG)12-MBNL1 complex measured by TR-FRET
Assay type: biochemical
Settings: 80 nM RNA, 60 nM MBNL1-His6

IC50 (Table M)	IC50 (Table L)	SMILES
1.91 µM		CC(C(=O)N(C)C(C)C(=O)N(C)C(C)C(=O)N(C)C(C)C(=O)N(CCCn1cc(CCCCN(C)CCOc2ccc(-c3nc4cc(-c5ccc6[nH]c(-c7ccc(OCCN(C)C)cc7)nc6c5)ccc4[nH]3)cc2)nn1)CC(N)=O)N(C)C(=O)CNCCCn1cc(CCCCN(C)CCOc2ccc(-c3nc4cc(-c5ccc6[nH]c(-c7ccc(OCCN(C)C)cc7)nc6c5)ccc4[nH]3)cc2)nn1 (centres unmarked) [compound 164]
> 200 µM		CN(C)CCCOc1ccc2[nH]c(-c3ccc(-c4nc5cc(OCCCN(C)C)ccc5n4C)cc3)nc2c1 [Compound 313]
> 200 µM		CN(C)CCCOc1ccc2nc(-c3ccc(-c4nc5ccc(OCCCN(C)C)cc5n4C)cc3)n(C)c2c1 [Compound 310]
> 200 µM		CN(C)CCCOc1ccc2nc(-c3ccc(-c4nc5ccc(OCCCC(=O)NCCN(C)C)cc5[nH]4)cc3)[nH]c2c1 [Compound 318]
6.7 µM		C[C@@H](CNC(=O)c1ccc(-c2nc3ccc(-c4ccc5nc(-c6ccc(C(=O)NCCN(C)C)cc6)[nH]c5c4)cc3[nH]2)cc1)NC(=O)c1ccc(-c2nc3ccc(-c4ccc5nc(-c6ccc(C(=O)NCCN(C)C)cc6)[nH]c5c4)cc3[nH]2)cc1 [Compound 442]
9.83 µM		CN(C)CCNC(=O)c1ccc(-c2nc3ccc(-c4ccc5nc(-c6ccc(C(=O)NCC(C)(C)CNC(=O)c7ccc(-c8nc9ccc(-c%10ccc%11nc(-c%12ccc(C(=O)NCCN(C)C)cc%12)[nH]c%11c%10)cc9[nH]8)cc7)cc6)[nH]c5c4)cc3[nH]2)cc1 [Compound 425]
> 200 µM		CN(C)CCCOc1ccc(-c2nc3cc(-c4ccc(C(=O)NCCN(C)CCN)cc4)ccc3[nH]2)cc1 [Compound 395]
16.7 µM		NCCCOc1ccc(-c2nc3cc(-c4ccc5[nH]c(-c6ccc(O)cc6)nc5c4)ccc3[nH]2)cc1 [Compound 380]

Second part, the molecule before the results:

SMILES	IC50 (Table M)	IC50 (Table L)
NC(=O)Nc1ccc(-c2nc3cc(-c4ccc5[nH]c(-c6ccc(NC(N)=O)cc6)nc5c4)ccc3[nH]2)cc1 [Compound 97]		71 µM
N=C(N)Nc1ccc2nc(-c3ccc(-c4ccc(-c5nc6ccc(NC(=N)N)cc6[nH]5)cc4)cc3)[nH]c2c1 [Compound 81]		6.1 µM
N=C(NO)c1ccc2nc(-c3ccc(-c4nc5ccc(C(=N)NO)cc5[nH]4)cc3)[nH]c2c1 [Compound 25, 2,2′-(1,4-phenylene)bis(N-hydroxy-1H-benzo[d]imidazole-6-carboximidamide)]		144 µM
CN(C)CCSCCOc1ccc2nc(-c3ccc(-c4nc5ccc(OCCSCCN(C)C)cc5[nH]4)cc3)[nH]c2c1 [Compound 210]	33.3 µM	
c1cc2nc(-c3ccc(-c4nc5ccc(NC6=NCCN6C6=NCCN6)cc5[nH]4)cc3)[nH]c2cc1NC1=NCCN1 [Compound 76]		14.5 µM
CC(=O)Nc1ccc2nc(-c3ccc(-c4nc5ccc(NC(C)=O)cc5[nH]4)cc3)[nH]c2c1 [Compound 6, N,N′-(2,2′-(1,4-phenylene)bis(1H-benzo[d]imidazole-5,2-diyl))diacetamide]		112 µM
CN(C)CCCOc1ccc2nc(-c3ccc(-c4nc5ccc(OCCCN(C)C)cc5[nH]4)c(OCCN(C)C)c3)[nH]c2c1 [Compound 263, 3,3′-((2,2′-(2-(2-(dimethylamino)ethoxy)-1,4-phenylene)bis(1H-benzo[d]imidazole-6,2-diyl))bis(oxy))bis(N,N-dimethylpropan-1-amine)]	45.6 µM	
CN(C)Cc1cccc(COc2ccc3nc(-c4ccc(-c5nc6ccc(OCc7cccc(CN(C)C)c7)cc6[nH]5)cc4)[nH]c3c2)c1 [Compound 213, 1,1′-((((1,4-phenylenebis(1H-benzo[d]imidazole-2,6-diyl))bis(oxy))bis(methylene))bis(3,1-phenylene))bis(N,N-dimethylmethanamine)]	22.8 µM	
N=C(N)Nc1ccc2nc(-c3ccc(-c4nc5ccc(NC(=N)N)cc5[nH]4)cc3)[nH]c2c1 [Compound 3, 1,1′-(2,2′-(1,4-phenylene)bis(1H-benzo[d]imidazole-6,2-diyl))diguanidine]		27 µM
